{
  "source": "patent US9029384B2",
  "about": "“Phosphatidylinositol 3-kinase inhibitors” (Gilead Calistoga LLC, priority 2012, dated 2015)",
  "data": [
    {"molecular_target": "T1, PI3Kδ (Homo sapiens, UniProt O00329)", "T1 construct": "made in house", "T1 sequence (O00329 whole entry, canonical isoform)": "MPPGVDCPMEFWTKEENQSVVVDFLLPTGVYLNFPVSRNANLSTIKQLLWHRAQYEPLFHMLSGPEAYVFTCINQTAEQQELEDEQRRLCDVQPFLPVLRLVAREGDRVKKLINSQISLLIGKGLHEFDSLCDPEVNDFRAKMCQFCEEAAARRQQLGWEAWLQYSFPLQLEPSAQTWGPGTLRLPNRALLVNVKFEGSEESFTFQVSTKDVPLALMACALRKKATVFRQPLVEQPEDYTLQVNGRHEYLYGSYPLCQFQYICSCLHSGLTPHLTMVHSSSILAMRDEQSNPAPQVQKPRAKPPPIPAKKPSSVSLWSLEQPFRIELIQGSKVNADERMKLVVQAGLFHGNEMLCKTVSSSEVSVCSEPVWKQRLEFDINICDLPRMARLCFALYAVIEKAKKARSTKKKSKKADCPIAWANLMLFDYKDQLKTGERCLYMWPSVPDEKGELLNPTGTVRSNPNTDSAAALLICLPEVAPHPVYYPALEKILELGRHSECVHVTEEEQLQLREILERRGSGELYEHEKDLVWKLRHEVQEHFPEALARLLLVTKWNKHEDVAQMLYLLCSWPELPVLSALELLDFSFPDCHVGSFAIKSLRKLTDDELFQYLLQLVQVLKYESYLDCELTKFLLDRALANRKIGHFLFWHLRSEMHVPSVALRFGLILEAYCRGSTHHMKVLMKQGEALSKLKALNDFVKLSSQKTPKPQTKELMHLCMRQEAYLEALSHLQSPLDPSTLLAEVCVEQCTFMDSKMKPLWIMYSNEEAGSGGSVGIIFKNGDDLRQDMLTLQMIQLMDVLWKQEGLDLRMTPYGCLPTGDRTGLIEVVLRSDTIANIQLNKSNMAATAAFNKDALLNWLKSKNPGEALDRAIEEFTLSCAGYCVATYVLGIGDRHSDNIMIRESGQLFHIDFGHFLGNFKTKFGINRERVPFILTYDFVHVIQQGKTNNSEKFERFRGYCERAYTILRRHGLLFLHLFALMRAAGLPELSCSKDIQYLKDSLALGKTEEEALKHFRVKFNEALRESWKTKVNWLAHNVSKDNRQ", "T1 sequence (P27986 whole entry partner, canonical isoform)": "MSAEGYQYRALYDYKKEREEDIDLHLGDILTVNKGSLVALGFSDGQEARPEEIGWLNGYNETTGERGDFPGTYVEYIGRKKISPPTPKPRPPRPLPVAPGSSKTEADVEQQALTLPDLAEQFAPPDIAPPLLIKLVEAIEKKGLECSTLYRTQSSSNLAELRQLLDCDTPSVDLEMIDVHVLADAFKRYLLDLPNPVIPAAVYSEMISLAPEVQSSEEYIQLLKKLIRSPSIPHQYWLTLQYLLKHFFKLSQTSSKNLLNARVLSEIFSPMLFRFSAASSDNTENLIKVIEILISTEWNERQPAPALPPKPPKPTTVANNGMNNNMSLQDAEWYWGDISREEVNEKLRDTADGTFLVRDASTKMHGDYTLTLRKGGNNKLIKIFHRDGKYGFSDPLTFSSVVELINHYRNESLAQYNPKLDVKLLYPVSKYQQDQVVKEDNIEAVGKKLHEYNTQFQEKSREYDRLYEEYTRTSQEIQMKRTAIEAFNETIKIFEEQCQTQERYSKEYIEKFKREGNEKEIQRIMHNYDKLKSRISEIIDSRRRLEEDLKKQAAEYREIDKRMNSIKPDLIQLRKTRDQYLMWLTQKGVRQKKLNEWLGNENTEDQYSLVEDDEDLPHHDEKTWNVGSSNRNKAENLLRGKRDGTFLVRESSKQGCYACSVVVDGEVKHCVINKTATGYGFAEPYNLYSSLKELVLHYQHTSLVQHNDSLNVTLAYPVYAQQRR", "experiment": "Enzymatic activity of PI3K isoforms, TR-FRET assay (PIP3 formation)", "assay_type": "biochemical", "details": "PI3Kδ; TR-FRET, 2×Km ATP, 10 μM PIP2; read-out: IC50", "description": "Enzymatic Activity of PI3K Isoforms\nThe TR-FRET assay was used to monitor formation of the product 3,4,5-inositol triphosphate molecule (PIP3) as it competed with fluorescently labeled PIP3 for binding to the GRP-1 pleckstrin homology domain protein. An increase in […] product results in a decrease in TR-FRET signal as the labeled fluorophore is displaced from the GRP-1 protein binding site.\nClass I PI3K isoforms were expressed and purified as heterodimeric recombinant proteins. All assay reagents and buffers for the TR-FRET assay were purchased from Millipore. […] After an assay reaction time of 30 minutes at 25° C., reactions were terminated with a final concentration of 10 mM EDTA, 10 nM labeled-PIP3, and 35 nM Europium labeled GRP-1 detector protein before reading TR-FRET on an Envision plate reader (Ex: 340 nm; Em: 615/665 nm; 100 μs delay and 500 μs read window).\nData are normalized based on a positive (1 uM wortmanin) and negative (DMSO) controls. The α, β, δ, and γ IC50 values were calculated from the fit of the dose-response curves to a four-parameter equation. IC50 are reported in units of nM.\nIC50 values were obtained for all PI3K isoforms (α, β, δ, and γ), and Table 2 summarizes the IC50 data collected for PI3Kδ in this Example B1.", "units": {"IC50": "nM"}, "values": [
      {"compound": "CC(Nc1nc(N)nc(N)c1C#N)c1nc2cccc(O)c2c(=O)n1-c1ccccc1", "note": "(single isomer, unassigned) [Compound 2a]", "IC50": "< 1"},
      {"compound": "Cc1cccc2c(=O)n(-c3ccccc3)c(C(C)Nc3nc(N)nc(N)c3C#N)nc12", "note": "(single isomer, unassigned) [Compound 3a]", "IC50": "1 to 10"},
      {"compound": "CCC(Nc1nc(N)nc(N)c1C#N)c1nc2ccc(F)c(F)c2c(=O)n1-c1cc(F)cc(F)c1", "note": "(single isomer, unassigned) [Compound 30a]", "IC50": "10 to 50"},
      {"compound": "CC(Nc1nc(N)nc(N)c1C#N)c1nc2cccc(F)c2c(=O)n1-c1cc(F)cc(C#N)c1", "note": "(single isomer, unassigned) [Compound 32a]", "IC50": "10 to 50"},
      {"compound": "CC(Nc1nc(N)nc(N)c1C#N)c1nc2cccc(F)c2c(=O)n1-c1cc(F)cc(C(F)(F)F)c1", "note": "(single isomer, unassigned) [Compound 33a]", "IC50": "> 50"},
      {"compound": "CC(Nc1nc(N)nc(N)c1C#N)c1nc2c(C(F)(F)F)cccc2c(=O)n1-c1cc(F)cc(F)c1", "note": "(single isomer, unassigned) [Compound 34a]", "IC50": "> 50"},
      {"compound": "Cc1cccc2c(=O)n(-c3cccc(C(F)(F)F)c3)c(C(C)Nc3nc(N)nc(N)c3C#N)nc12", "note": "(single isomer, unassigned) [Compound 39a]", "IC50": "10 to 50"},
      {"compound": "CCC(Nc1nc(N)nc(N)c1C#N)c1nc2cccc(F)c2c(=O)n1-c1cccc(C(F)(F)F)c1", "note": "(single isomer, unassigned) [Compound 46a]", "IC50": "10 to 50"},
      {"compound": "CC(Nc1nc(N)nc(N)c1C#N)c1nc2c(C(F)F)cccc2c(=O)n1-c1cc(F)cc(F)c1", "note": "(single isomer, unassigned) [Compound 57a]", "IC50": "10 to 50"},
      {"compound": "CCC(Nc1nc(N)nc(N)c1C#N)c1nc2cccc(F)c2c(=O)n1-c1cc(F)cc(C(F)F)c1", "note": "(single isomer, unassigned) [Compound 65a]", "IC50": "10 to 50"},
      {"compound": "COc1cccc2c(=O)n(-c3cc(F)cc(F)c3)c(C(C)Nc3nc(N)nc(N)c3C#N)nc12", "note": "(single isomer, unassigned) [Compound 68a]", "IC50": "> 50"},
      {"compound": "CCC(Nc1nc(N)nc(N)c1C#N)c1nc2c(F)cc(F)cc2c(=O)n1-c1cc(F)cc(F)c1", "note": "(single isomer, unassigned) [Compound 69a]", "IC50": "10 to 50"},
      {"compound": "CC(Nc1nc(N)nc(N)c1C#N)c1nc2cc(F)c(F)cc2c(=O)n1-c1cc(F)cc(F)c1", "note": "(single isomer, unassigned) [Compound 79a]", "IC50": "10 to 50"},
      {"compound": "Cc1ccc(F)c2c(=O)n(-c3cc(F)cc(C#N)c3)c(C(C)Nc3nc(N)nc(N)c3C#N)nc12", "note": "(single isomer, unassigned) [Compound 83a]", "IC50": "10 to 50"},
      {"compound": "CC(Nc1nc(N)nc(N)c1C#N)c1nc2ccc(Cl)c(F)c2c(=O)n1-c1cc(F)cc(F)c1", "note": "(single isomer, unassigned) [Compound 85a]", "IC50": "> 50"},
      {"compound": "CCC(Nc1nc(N)nc(N)c1C#N)c1nc2ccc(Cl)c(F)c2c(=O)n1-c1cc(F)cc(F)c1", "note": "(single isomer, unassigned) [Compound 86a]", "IC50": "> 50"},
      {"compound": "CC(Nc1nc(N)nc(N)c1C#N)c1nc2cccc(Cl)c2c(=O)n1-c1cc(C#N)cc(C#N)c1", "note": "(single isomer, unassigned) [Compound 87a]", "IC50": "> 50"},
      {"compound": "CC(Nc1nc(N)nc(N)c1C#N)c1nc2cccc(F)c2c(=O)n1-c1cc(C(F)(F)F)cc(C(F)(F)F)c1", "note": "(single isomer, unassigned) [Compound 88a]", "IC50": "> 50"},
      {"compound": "CC(Nc1nc(N)nc(N)c1S(C)(=O)=O)c1nc2cccc(Cl)c2c(=O)n1-c1cc(F)cc(F)c1", "note": "(single isomer, unassigned) [Compound 94a]", "IC50": "> 50"},
      {"compound": "CCc1cccc2c(=O)n(-c3cc(F)cc(F)c3)c(C(C)Nc3nc(N)nc(N)c3C#N)nc12", "note": "(single isomer, unassigned) [Compound 103a]", "IC50": "10 to 50"},
      {"compound": "CCC(Nc1nc(N)nc(N)c1Cl)c1nc2cccc(F)c2c(=O)n1-c1cc(F)cc(F)c1", "note": "(single isomer, unassigned) [Compound 105a]", "IC50": "> 50"},
      {"compound": "COc1cccc(-n2c(C(C)Nc3nc(N)nc(N)c3C#N)nc3cccc(Cl)c3c2=O)c1C", "note": "(single isomer, unassigned) [Compound 109a-1]", "IC50": "10 to 50"},
      {"compound": "COc1cc(F)cc(-n2c(C(C)Nc3nc(N)nc(N)c3C#N)nc3cccc(Cl)c3c2=O)c1C", "note": "(single isomer, unassigned) [Compound 110a-1]", "IC50": "> 50"},
      {"compound": "COc1cc(F)cc(-n2c(C(C)Nc3nc(N)nc(N)c3C#N)nc3cccc(Cl)c3c2=O)c1C", "note": "(single isomer, unassigned) [Compound 110a-2]", "IC50": "1 to 10"},
      {"compound": "CC(Nc1nc(N)nc(N)c1C#N)c1nc2cccc(C#N)c2c(=O)n1-c1cc(F)cc(C#N)c1", "note": "(single isomer, unassigned) [Compound 113a]", "IC50": "> 50"},
      {"compound": "CC(Nc1nc(N)nc(N)c1C#N)c1nc2cccc(F)c2c(=O)n1-c1cc(Cl)cc(C(F)F)c1", "note": "(single isomer, unassigned) [Compound 114a]", "IC50": "> 50"},
      {"compound": "CC(Nc1nc(N)nc(N)c1C#N)c1nc2cccc(F)c2c(=O)n1-c1cc(C(F)F)cc(C(F)F)c1", "note": "(single isomer, unassigned) [Compound 118a]", "IC50": "> 50"},
      {"compound": "CC(Nc1nc(N)nc(N)c1C#N)c1nc2cccc(Br)c2c(=O)n1-c1cccc(F)c1", "note": "(single isomer, unassigned) [Compound 130a]", "IC50": "< 1"},
      {"compound": "N#Cc1c(N)nc(N)nc1NC(CC(F)(F)F)c1nc2ccc(F)cc2c(=O)n1-c1ccccc1", "note": "(single isomer, unassigned) [Compound 132a]", "IC50": "> 50"},
      {"compound": "N#Cc1c(N)nc(N)nc1NC(CC(F)(F)F)c1nc2ccc(F)cc2c(=O)n1-c1cc(F)cc(F)c1", "note": "(single isomer, unassigned) [Compound 133a]", "IC50": "> 50"},
      {"compound": "CC(Nc1nc(N)nc(N)c1C#N)c1nc2cccc(F)c2c(=O)n1-c1cc(C(F)F)cc(C(F)F)c1", "note": "(single isomer, unassigned) [Compound 136a]", "IC50": "> 50"},
      {"compound": "CC(Nc1nc(N)nc(N)c1C#N)c1nc2cccc(C#N)c2c(=O)n1-c1cc(F)cc(C(F)F)c1", "note": "(single isomer, unassigned) [Compound 138a]", "IC50": "10 to 50"},
      {"compound": "CC(Nc1nc(N)nc(N)c1C#N)c1nc2ccc(C#N)cc2c(=O)n1-c1ccccc1", "note": "(single isomer, unassigned) [Compound 159a]", "IC50": "> 50"},
      {"compound": "CC(Nc1nc(N)nc(N)c1C#N)c1nc2cccc(C(=O)O)c2c(=O)n1-c1ccccc1", "note": "(single isomer, unassigned) [Compound 162a, 2-(1-((2,6-diamino-5-cyanopyrimidin-4-yl)amino)ethyl)-4-oxo-3-phenyl-3,4-dihydroquinazoline-5-carboxylic acid]", "IC50": "> 50"},
      {"compound": "N#Cc1c(N)nc(N)nc1NC(CC(F)(F)F)c1nc2cccc(Cl)c2c(=O)n1-c1cc(F)cc(F)c1", "note": "(single isomer, unassigned) [Compound 165a]", "IC50": "> 50"},
      {"compound": "N#Cc1c(N)nc(N)nc1NC(CC(F)(F)F)c1nc2cccc(F)c2c(=O)n1-c1cc(F)cc(F)c1", "note": "(single isomer, unassigned) [Compound 166a]", "IC50": "> 50"},
      {"compound": "Cc1c(-n2c(C(C)Nc3nc(N)nc(N)c3C#N)nc3cccc(Cl)c3c2=O)ccc(F)c1F", "note": "(single isomer, unassigned) [Compound 204a-1]", "IC50": "10 to 50"},
      {"compound": "Cc1c(-n2c(C(C)Nc3nc(N)nc(N)c3C#N)nc3cccc(Cl)c3c2=O)ccc(F)c1F", "note": "(single isomer, unassigned) [Compound 204a-2]", "IC50": "1 to 10"},
      {"compound": "N#Cc1c(N)nc(N)nc1NCc1nc2cc(F)c(F)cc2c(=O)n1-c1cc(F)cc(F)c1", "note": "[Compound 80, 2,4-diamino-6-((3-(3,5-difluorophenyl)-6,7-difluoro-4-oxo-3,4-dihydroquinazolin-2-yl)methylamino)pyrimidine-5-carbonitrile]", "IC50": "> 50"},
      {"compound": "N#Cc1cccc(-n2c(CNc3nc(N)nc(N)c3C#N)nc3c(Cl)cccc3c2=O)c1", "note": "[Compound 84, 2,4-diamino-6-((8-chloro-3-(3-cyanophenyl)-4-oxo-3,4-dihydroquinazolin-2-yl)methylamino)pyrimidine-5-carbonitrile]", "IC50": "> 50"}
    ]},
    {"test_system": "basophils", "experiment": "Basophil activation in human whole blood (Flow2 CAST kit, CD63 positive cells)", "assay_type": "cell-based", "details": "Homo sapiens, basophils activated with anti-FcεRI mAb or fMLP, geometric mean", "experimental": "Effect on basophil activation was measured in human whole blood using the Flow2 CAST® kit (Buhlmann Laboratories AG, Baselstrasse, Switzerland) following the protocol provided by the manufacturer with minor modifications. Human whole blood was collected into K2-EDTA venipuncture tubes. Whole blood samples were treated with either DMSO (0.3% final) or a serial dilution of compounds in DMSO for 60 minutes at 37° C. Basophils were then activated either with anti-FcεRI mAb or with fMLP. To activate basophils using the anti-FcεRI mAb; 50 μl of whole blood was mixed with 110 μl of stimulation buffer (B-BAT-STB) and 20 μl of anti-FcεRI (B-BAT-STCON). To activate basophils with fMLP; 50 μl of whole blood was mixed with 80 μl of stimulation buffer (B-BAT-STB) and 50 μl of fMLP (B-CCR-FMLP). Stimulation buffer was used as a negative control. 20 μl of the staining reagent (combination of anti-human CD63-FITC and anti-human CCR3-PE mAbs) was then added to each tube. […] Subsequently, erythrocytes were lysed and fixed by the addition of 2 ml of lysing solution (B-BAT-LYR) for 10 min at room temperature. Cells were pelleted by centrifugation at 1200 rpm for 10 min at room temperature in a swing-out rotor. Supernatant was aspirated and cell pellet resuspended in 400 μl of wash buffer. Flow cytometric analysis of the basophil activation was performed on a FC500MPL flow cytometer (Beckman Coulter Inc., Fullerton, Calif.). CCR3-staining and side scatter were applied to gate at least 200 basophils that expressed a high density of CCR3. The percent CD63 positive cells within the gated basophil population were determined in different treatment groups and normalized to the vehicle control (0.3% DMSO) with anti-FcεRI mAb of fMLP stimulus as 100%. Final compound concentration was adjusted to correct for dilution effect of added reagents. The EC50 values were calculated from the analysis of the dose-response curves to a four-parameter equation. All EC50 values represent geometric mean values and are reported in units of nM.", "units": {"EC50": "nM"}, "values": [
      {"compound": "CC(Nc1nc(N)nc(N)c1C#N)c1nc2cccc(O)c2c(=O)n1-c1ccccc1", "note": "(single isomer, unassigned) [Compound 2a]", "EC50": "1 to 10"},
      {"compound": "Cc1cccc2c(=O)n(-c3ccccc3)c(C(C)Nc3nc(N)nc(N)c3C#N)nc12", "note": "(single isomer, unassigned) [Compound 3a]", "EC50": "10 to 50"}
    ]}
  ]
}
